According to US10065971B2 (priority 2014, dated 2018):

biological target: human σ1 receptor (Homo sapiens, UniProt Q99720); test: biochemical; set-up: μ and σ1 dual binding: scale not given here; conditions: combined class from Ki at human σ1 receptor (A1) and Ki at human μ-opioid receptor (A2); radioligand binding
Experimental: Biological Activity Pharmacological Study Human σ1 Receptor Radioligand Assay
The assay was carried out with 7 μg of membrane suspension, 5 nM of [^3H](+)-pentazocine in either absence or presence of either buffer or 10 μM Haloperidol for total and non-specific binding, respectively. Binding buffer contained Tris-HCl 50 mM at pH 8. Plates were incubated at 37° C. for 120 minutes. After the incubation period, the reaction mix was then transferred to MultiScreen HTS, FC plates (Millipore), filtered and plates were washed 3 times with ice-cold 10 mM Tris-HCL (pH7.4). Filters were dried and counted at approximately 40% efficiency in a MicroBeta scintillation counter (Perkin-Elmer) using EcoScint liquid scintillation cocktail

Chain of human σ1 receptor (Q99720 whole entry): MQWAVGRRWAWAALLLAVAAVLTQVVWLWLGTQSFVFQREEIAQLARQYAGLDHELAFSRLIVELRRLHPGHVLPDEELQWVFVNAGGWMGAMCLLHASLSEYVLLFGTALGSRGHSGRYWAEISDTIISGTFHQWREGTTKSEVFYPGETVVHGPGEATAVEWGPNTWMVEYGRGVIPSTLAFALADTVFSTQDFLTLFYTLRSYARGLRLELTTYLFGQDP

Compound | μ and σ1 dual binding
CN(C(=O)N1CCOC2(CCN(CCc3ccccc3)CC2)C1)c1ccccn1.Cl [Example 119, N-methyl-9-phenethyl-N-(pyridin-2-yl)-1-oxa-4,9-diazaspiro[5.5]undecane-4-carboxamide hydrochloride] | ++
CC(=O)Nc1ccccc1CCN1CCC2(CC1)CN(C(=O)c1ccccc1)CC(C)O2.Cl (stereo not drawn) [Example 112, N-(2-(2-(4-benzoyl-2-methyl-1-oxa-4,9-diazaspiro[5.5]undecan-9-yl)ethyl)phenyl)acetamide hydrochloride] | ++
CC1CN(C(=O)c2ncccc2F)CC2(CCN(CCc3ccccc3)CC2)O1.Cl (stereo not drawn) [Example 32, (3-fluoropyridin-2-yl)(2-methyl-9-phenethyl-1-oxa-4,9-diazaspiro[5.5]undecan-4-yl)methanone hydrochloride] | ++
CC1CN(C(=O)c2ccccc2)CC2(CCN(CCc3ccc(C(F)(F)F)cn3)CC2)O1.Cl (stereo not drawn) [Example 42, (2-methyl-9-(2-(5-(trifluoromethyl)pyridin-2-yl)ethyl)-1-oxa-4,9-diazaspiro[5.5]undecan-4-yl)(phenyl)methanone hydrochloride] | ++
CC1CN(C(=O)c2ccccc2)CC2(CCN(CCc3ccccc3NC(N)=O)CC2)O1 (stereo not drawn) [Example 110, 1-(2-(2-(4-benzoyl-2-methyl-1-oxa-4,9-diazaspiro[5.5]undecan-9-yl)ethyl)phenyl)urea] | ++
Cl.O=S(=O)(c1ccccc1)N1CCOC2(CCN(CCc3ccccc3)CC2)C1 [Example 83, 9-phenethyl-4-(phenylsulfonyl)-1-oxa-4,9-diazaspiro[5.5]undecane hydrochloride] | ++
Cl.O=C(Cc1ccccn1)N1CCOC2(CCN(CCc3ccccc3)CC2)C1 [Example 19, 1-(9-phenethyl-1-oxa-4,9-diazaspiro[5.5]undecan-4-yl)-2-(pyridin-2-yl)ethanone hydrochloride] | ++
Cl.O=C(c1cncs1)N1CCOC2(CCN(CCc3ccccc3)CC2)C1 [Example 14, (9-phenethyl-1-oxa-4,9-diazaspiro[5.5]undecan-4-yl)(thiazol-5-yl)methanone hydrochloride] | ++
CC1CN(C(=O)c2ccccc2)CC2(CCN(CCc3ccccn3)CC2)O1.Cl (stereo not drawn) [Example 87, (2-methyl-9-(2-(pyridin-2-yl)ethyl)-1-oxa-4,9-diazaspiro[5.5]undecan-4-yl)(phenyl)methanone hydrochloride] | ++
C[C@H]1CN(C(=O)c2c(F)cccc2F)CC2(CCN(CCc3ncccc3F)CC2)O1 [Example 146, (S)-(2,6-difluorophenyl)(9-(2-(3-fluoropyridin-2-yl)ethyl)-2-methyl-1-oxa-4,9-diazaspiro[5.5]undecan-4-yl)methanone] | ++
C[C@@H]1CN(C(=O)c2ccccn2)CC2(CCN(CCc3ccccc3)CC2)O1.Cl [Example 124, (R)-(2-methyl-9-phenethyl-1-oxa-4,9-diazaspiro[5.5]undecan-4-yl)(pyridin-2-yl)methanone hydrochloride] | ++
Cl.O=C(CC1CC1)N1CCOC2(CCN(CCc3ccccc3)CC2)C1 [Example 20, 2-cyclopropyl-1-(9-phenethyl-1-oxa-4,9-diazaspiro[5.5]undecan-4-yl)ethanone hydrochloride] | ++
Cl.O=C(c1ccccc1)N1CCOC2(CCN(CCc3ccc(C(F)(F)F)nc3)CC2)C1 [Example 70, phenyl(9-(2-(6-(trifluoromethyl)pyridin-3-yl)ethyl)-1-oxa-4,9-diazaspiro[5.5]undecan-4-yl)methanone hydrochloride] | ++

same assay, conditions: combined class from Ki at human σ1 receptor (A1) and Ki at human μ-opioid receptor (A2); radioligand binding; read-out: μ and σ1 dual binding

Compound | Ki
O=C(C1CCOCC1)N1CCOC2(CCN(CCc3ccccc3)CC2)C1 [Example 18, (9-phenethyl-1-oxa-4,9-diazaspiro[5.5]undecan-4-yl)(tetrahydro-2H-pyran-4-yl)methanone] | > 500 nM
O=C(Nc1cccnc1)N1CCOC2(CCN(CCc3ccccc3)CC2)C1 [Example 121, 9-phenethyl-N-(pyridin-3-yl)-1-oxa-4,9-diazaspiro[5.5]undecane-4-carboxamide] | > 500 nM
